Consider 1 molecule from US20180028498A1, “A PHARMACEUTICAL COMPOSITION FOR THE PARENTERAL ADMINISTRATION OF MELATONIN, AND A PROCESS FOR ITS PREPARATION” (INDUSTRIA FARMACEUTICA GALENICA SENESE S.R.L., priority 2015, published 2018).

In data set [1] the test system is chronic lung disease. To be noted: infants; cited from earlier work.
Data set [2] deals with pain. The following applies: in combination with other drugs, endotracheal intubation in infants; cited from earlier work.
For data set [3] the following is noted: cited from earlier work.
Data set [4] has as its system free radicals (pro-inflammatory cytokines). The following applies: ventilated infants with bronchopulmonary dysplasia; cited from earlier work.
Data set [5] can be described thus: Solubility / maximum concentration of melatonin in solvent. The class given is physicochemical. The following applies: physiological saline solution, no excipients, co-solvents or diluents. An excerpt:
There are moreover disclosed in the literature injectable formulations of melatonin, that are in general solutions of melatonin in ethanol or in propylene glycol, then diluted with water. As a matter of fact, melatonin is known to be a substance that dissolves in aqueous media with great difficulties.
The present pharmaceutical compositions in the form of an aqueous solution, thanks to the process of preparation of the invention described in detail in the following, may contain, dissolved in aqueous solution, amounts of melatonin that are relatively high and suitable for the dosages required in medical treatments; the concentration of melatonin in the present compositions is indeed comprised between 0.2 and 0.4 mg/ml, this latter being the maximum value of concentration obtained for the melatonin in the present aqueous compositions, in the absence of any excipients, co-solvents or diluents different from the physiological saline solution.
A pharmaceutical dissolver of suitable size was deaerated by insufflation of filtered nitrogen, then the dissolver was charged with water for injections at 85° C., to fill approximately 80% of the inner volume of the dissolver. After cooling water at 50° C., sodium chloride was added in such amount as to obtain a final concentration of 9mg/ml; the so obtained solution was deaerated by bubbling filtered nitrogen. […]

As for `COc1ccc2[nH]cc(CCNC(C)=O)c2c1` [melatonin, N-acetyl-5-methoxytriptamine], in data set [1], the “efficacy in chronic lung disease” value is “same efficacy has been demonstrated”. Besides, the “efficacy as an analgesic” value in data set [2] is on record as “demonstrated the efficacy”. For the same molecule, the solubility in ethanol result in data set [3] (ethanol) was “fairly good solubility”. The solubility in water result in data set [3] (water) is recorded as “close to zero”. The “reduction of production of free radicals (pro-inflammatory cytokines)” value in data set [4] is on record as “effective in reducing the production of these molecules”. Besides, the “maximum value of concentration obtained in aqueous composition” value in data set [5] was 0.4 mg/mL.
